Source: patent US20090142816A1, “GLIOCLADIUM ISOLATE C-13 AND METHODS OF ITS USE FOR PRODUCING VOLATILE COMPOUNDS AND HYDROCARBONS” (priority 2007, published 2009)
Entries after “also recorded” stand apart in the source; their conditions may differ.

Experiments:
Experiment in all cases: PDA plate bioassay of artificial VOC mixture / [8]annulene, two day exposure
Assay type in all cases: cell-based
Aspergillus ochraceus = test system: Aspergillus ochraceus
Description: (§1) An artificial mixture of compounds, as well as [8]annulene, that were positively identified in the atmosphere of the Gliocladium sp., were subjected to PDA plate bioassay tests for a two day exposure period. They were available from Sigma-Aldrich (St. Louis, Mo.) or were prepared via organic synthetic techniques (Strobel et al., Microbiology 147: 2943-2950, 2001). Varying amounts (non-equilibrium conditions) of the mixtures of the VOCs (0.8-30 μl) were placed in a small sterile plastic microcup (4×6 mm) that was firmly fixed in the middle of the test plate, and then test organisms were inoculated around the periphery of the agar surface. The amount of each VOC used was calculated from relative areas (RA's) in Table 2. […] Measurements of fungal growth were made and compared to growth on a control PDA plate having no test compounds. The IC50 and IC100 values were calculated from data plots of inhibition of fungal growth as a function of VOC concentrations (Strobel et al., Microbiology 147: 2943-2950, 2001). The IC values are presented as the amount of VOCs (volume per ml of air space in the Petri plate above the fungal culture). Studies were done in triplicate and the data averaged and standard deviations determined (Strobel et al., Microbiology 147: 2943-2950, 2001). Each test organism, after the two day exposure was tested for its viability by placing it on a fresh plate of PDA.
(§2) The test fungi were exposed to amounts of the VOC's varying from 0.8 μl to 30 μl (non-equilibrium conditions in a 50 ml air space volume above the fungal culture on the Petri plate) and exposed to them for two days after which growth rates were measured and the IC50's and IC100's calculated.
(§3) The artificial mixture was prepared based on the ratios of the compounds identified by GC/MS. The IC50's were calculated on the basis of the μl VOCs/ml of the free gas space in the Petri plate above the fungal culture. The IC100's were extrapolated from the curves obtained by plotting fungal inhibition vs. VOC concentration. The IC100's represent the approximate concentration required to give 100% inhibition of fungal growth. Viability was evaluated by transferring the fungal to a regular PDA plate after exposure to the VOC mixtures.
(§4) The IC50's were calculated on the basis of the μl [8]annulene/ml of the free gas space in the Petri plate above the fungal culture. The IC50's and IC100's were calculated in the same manner as described in Example 1. The IC100's represent the approximate concentration required to give 100% inhibition of fungal growth. Viability was tested by transferring the fungal to a regular PDA plate after exposure to [8]annulene.

Fusarium oxysporum = test system: Fusarium oxysporum
Description: as §1, §2, §3, §4

Geotrichum candidum = test system: Geotrichum candidum
Description: as §1, §2, §3, §4

Gliocladium sp. = test system: Gliocladium sp.
Description: as §1, §2, §3, §4

Pythium ultimum = test system: Pythium ultimum
Description: as §1, §2, §3, §4

Rhizoctonia solani = test system: Rhizoctonia solani
Description: as §1, §2, §3, §4

Sclerotinia sclerotiorum = test system: Sclerotinia sclerotiorum
Description: as §1, §2, §3, §4

Verticillium dahliae = test system: Verticillium dahliae
Description: as §1, §2, §3, §4

[1] = after exposure at the IC100 level, placed on fresh agar plate
[2] = two day exposure, approximate concentration for 100% inhibition, extrapolated from inhibition curves
[3] = two day exposure, μl per ml of free gas space in the Petri plate

- IC50 (Aspergillus ochraceus; [3]): 0.08 ± 0.01 μl/ml
- IC50 (Fusarium oxysporum; [3]): 0.28 ± 0.03 μl/ml
- IC50 (Geotrichum candidum; [3]): 0.10 ± 0.02 μl/ml
- IC50 (Gliocladium sp.; [3]): 0.30 ± 0.01 μl/ml
- IC50 (Pythium ultimum; [3]): 0.10 ± 0.04 μl/ml
- IC50 (Rhizoctonia solani; [3]): 0.14 ± 0.08 μl/ml
- IC50 (Sclerotinia sclerotiorum; [3]): 0.05 ± 0.01 μl/ml
- IC50 (Verticillium dahliae; [3]): 0.18 ± 0.00 μl/ml
SMILES: C1=CC=CC=CC=C1 [[8]annulene, 1,3,5,7-cyclooctatetraene]
- Viability (Aspergillus ochraceus; [1]): alive
- IC100 (Aspergillus ochraceus; [2]): 0.50 μl/ml
- Viability (Fusarium oxysporum; [1]): alive
- IC100 (Fusarium oxysporum; [2]): 0.70 μl/ml
- Viability (Geotrichum candidum; [1]): alive
- IC100 (Geotrichum candidum; [2]): 0.44 μl/ml
- Viability (Gliocladium sp.; [1]): alive
- IC100 (Gliocladium sp.; [2]): 0.60 μl/ml
- Viability (Pythium ultimum; [1]): did not die; also recorded: alive
- IC100 (Pythium ultimum; [2]): 0.30 μl/ml
- Viability (Rhizoctonia solani; [1]): alive
- IC100 (Rhizoctonia solani; [2]): 0.40 μl/ml
- Viability (Sclerotinia sclerotiorum; [1]): did not die; also recorded: alive
- IC100 (Sclerotinia sclerotiorum; [2]): 0.30 μl/ml
- Viability (Verticillium dahliae; [1]): alive
- IC100 (Verticillium dahliae; [2]): 0.30 μl/ml
